Consider 1 compound from patent US4771041A, “Method for combating virus infection” (priority 1976, dated 1988).

For data set [1], the target named is T1, E. coli DNA dependent RNA polymerase (Escherichia coli, UniProt P0A8T7+P0A8V2).
T1 construct: purchased Sigma
The experiment in a line: Inhibition of E. coli DNA dependent RNA polymerase. In kind it is biochemical. How it is done:
Polymerases, nucleic acid template nucleoside triphosphates, of which guanosine triphosphate is tritium-labelled, salt and buffer are mixed at 0° C. in a total volume of 125 μl (for herpes DNA polymerase, see F. below). The concentrations of the nucleoside triphosphates UTP (uridine triphosphate), CTP (cytidinetriphosphate), GTP (guanosinetriphosphate) and ATP (adenosinetriphosphate) were generall 400, 400, 400, and 2000 μM, respectively. The test compound is also added in various concentrations to the mixture obtained. A standard mixture without test compound is also prepared using the same amounts of the ingredients. The enzyme reaction, i.e. synthesis of nucleic acid, is started by incubating the mixture at 37° C. For influenza RNA polymerases the temperature is 33° C. The reaction is allowed to proceed for 60 minutes in the assay of influenza and Micrococcus polymerases. […] The incorporation of labelled monomer into trichloroacetic acid insoluble nucleic acid product was measured in the following way. […] After drying the discs are measured for radioactivity in a liquid scintillation counter. The difference in radioactivity between samples with and without added compound is used to calculate the inhibition of the polymerase activity. The inhibition is expressed as percentage inhibition using the radioactivity of the standard sample as basis. […]

The next data set relates to visna virus. The experiment in a line: Visna virus growth in sheep choroid plexus (SCP) cells: virus titre and morphological changes. In kind it is cell-based. The note with it: for Morphological changes Day 3 / Morphological changes Day 5 / Morphological changes Day 7: Visna virus infected cells. The protocol:
Visna virus is a retrovirus that can multiply in sheep choroid (SCP) cells. The infection can be followed by titrating medium from infected cells to determine the formation of virus particles and by observing morphological changes as syncytial formation and cell degeneration.
Plates (5 cm) with primary SCP cells in medium 199 with 10% sheep serum were grown to confluence and then infected with 1×10^6 TCID50 (tissue culture infectious doses) of visna virus. One set of plates were left untreated, one set received different concentrations of phosphonoformic acid (PFA) at pH 7.2. Another set received phosphonoacetic acid (PAA) at pH 7.2. Uninfected plates were used as controls with and without PFA and PAA. The virus titre was determined 5 days after infection by the end-point titration method. The plates were checked daily in a light microscope to observe morphological changes.

Data set [2] deals with T2, reverse transcriptase from VV (Maedi visna virus, UniProt P03370).
T2 construct: Reverse transcriptase from various retroviruses have been tested in cell-free assays; made in house
Kind of data set: Cell-free reverse transcriptase inhibition, VV. In kind it is biochemical. The note with it: template/primer (rA)n.(dT)10, read-out: Percent inhibition. How it is done: Reverse transcriptase from various retroviruses have been tested in cell-free assays for inhibition by phosphonoformic acid and phosphonoacetic acid. The assay conditions have been described by Collaborative Research, Inc, 1365 Main Street, Waltham, Mass., USA "Assay kit for mammalian viral reverse transcriptase". BLV and VV were prepared in this laboratory and all other viruses and viral enzyme were obtained from Dr. K Nilsson, Department of Pathology, University of Uppsala and from Boehringer Mannheim, Germany. Phosphonoformic acid (PFA) and phosphonoacetic acid (PAA) were added at pH 7.2 to the reaction mixtures at the start of the reaction.
Rauscher murine leukemia virus; RMuLV, visna virus; VV, avian myeloblastosis virus; AMV, bovine leukemia virus; BLV, baboon endogenous virus; BaEV, simian sarcoma virus; SSV.

The target in data set [3] is type A influenza virion-associated RNA polymerase (Influenza A virus (A/nt/60/1968(H3N2)), UniProt P03432). The experiment in a line: Inhibition of type A influenza virion-associated RNA polymerase. Type of data set: biochemical, Influenza A2 Aichi virus. To be noted: mean of two experiments. How it is done:
Polymerases, nucleic acid template nucleoside triphosphates, of which guanosine triphosphate is tritium-labelled, salt and buffer are mixed at 0° C. in a total volume of 125 μl (for herpes DNA polymerase, see F. below). The concentrations of the nucleoside triphosphates UTP (uridine triphosphate), CTP (cytidinetriphosphate), GTP (guanosinetriphosphate) and ATP (adenosinetriphosphate) were generall 400, 400, 400, and 2000 μM, respectively. The test compound is also added in various concentrations to the mixture obtained. A standard mixture without test compound is also prepared using the same amounts of the ingredients. The enzyme reaction, i.e. synthesis of nucleic acid, is started by incubating the mixture at 37° C. For influenza RNA polymerases the temperature is 33° C. The reaction is allowed to proceed for 60 minutes in the assay of influenza and Micrococcus polymerases. For E.coli DNA dependent RNA polymerase the time is 20 min. and for herpes DNA polymerase 30 minutes. The incubation time for calf thymus polymerases is 10 minutes. The incorporation of labelled monomer into trichloroacetic acid insoluble nucleic acid product was measured in the following way. Before and after the incubation period 50 μl are withdrawn from the mixture and applied to filter discs. These are put in 5% trichloroacetic acid solution and washed several times. After drying the discs are measured for radioactivity in a liquid scintillation counter. The difference in radioactivity between samples with and without added compound is used to calculate the inhibition of the polymerase activity. The inhibition is expressed as percentage inhibition using the radioactivity of the standard sample as basis.
A. Inhibition by phosphonoformic acid of type A influenza virion associated RNA polymerase
Influenza A2 Aichi virus was purified according to the method of Pons and Hirst, Virology 34 385 (1968). The assay mixture is described by Bishop, Obijeski and Simpson, J. Virol. 8 66 (1971).

The next data set is described as follows: Acute toxicity in mice. The note with it: mouse, in vivo, ip, as sodium salt, male NMRI mice. On the set-up: species or system male mice of NMRI strain. How it is done:
Phosphonoformic acid was tested for acute toxicity in mice. The compound (as its sodium salt) was given as solution i.p. in doses of 250, 500, 1000, 2000 and 4000 μmol/kg. Groups of 4 male mice of NMRI strain weighing 18.5-20.5 g were used for each dose.

On the set-up of data set [4]: species or system Cynomolgus monkeys. To be noted: cynomolgus monkey, in vivo. The protocol: Phosphonoformic acid, also denoted PFA and phosphonoacetic acid, also denoted PAA were used in the form of their trisodium and disodium salt, respectively. The following equimolar compositions of the two test compounds were used: […]
Two adult male Cynomolgus monkeys were treated once daily for 7 days with PFA or PAA in Arlatone cream. Treatment was done both by topical application of 0.2 ml cream on an area of 3×7 cm on the upper part of the arms and by application of 0.2 ml of cream on the penis and the adjacent skin. During application of cream, the animals were lightly anaesthetized with Ketalar®, given intramuscularly. All applications were 0.2 ml each on day 6/3, 7/3, 8/3, 9/3, 10/3, 11/3 and 12/3 1978.

The test system of the next data set is HTLV-III. Kind of data set: HTLV-III replication in H9 cells. Type of data set: cell-based. The note with it: Human immunodeficiency virus 1, 144 h. The protocol: H9 cells constitute a human cell line that can be chronically infected with HTLV-III virus. (Science 1984; 224: 497-500). H9 cells were treated with polybrene (2 μg/ml) for 30 min. at 37° C., washed free of polybrene and infected with 2×10^8 HTLV-III virus particles per 4×10^5 H9 cells. […] The cultures were analyzed for HTLV-III reverse transcriptase activity as described above.

SMILES strings stand for the structures.

The inhibition is how much of the control response was suppressed. In general, LD50 refers to the dose expected to kill half of the subjects tested.

Chain of type A influenza virion-associated RNA polymerase (Influenza A virus (A/nt/60/1968(H3N2)), UniProt P03432) (P03432 whole entry, looked up): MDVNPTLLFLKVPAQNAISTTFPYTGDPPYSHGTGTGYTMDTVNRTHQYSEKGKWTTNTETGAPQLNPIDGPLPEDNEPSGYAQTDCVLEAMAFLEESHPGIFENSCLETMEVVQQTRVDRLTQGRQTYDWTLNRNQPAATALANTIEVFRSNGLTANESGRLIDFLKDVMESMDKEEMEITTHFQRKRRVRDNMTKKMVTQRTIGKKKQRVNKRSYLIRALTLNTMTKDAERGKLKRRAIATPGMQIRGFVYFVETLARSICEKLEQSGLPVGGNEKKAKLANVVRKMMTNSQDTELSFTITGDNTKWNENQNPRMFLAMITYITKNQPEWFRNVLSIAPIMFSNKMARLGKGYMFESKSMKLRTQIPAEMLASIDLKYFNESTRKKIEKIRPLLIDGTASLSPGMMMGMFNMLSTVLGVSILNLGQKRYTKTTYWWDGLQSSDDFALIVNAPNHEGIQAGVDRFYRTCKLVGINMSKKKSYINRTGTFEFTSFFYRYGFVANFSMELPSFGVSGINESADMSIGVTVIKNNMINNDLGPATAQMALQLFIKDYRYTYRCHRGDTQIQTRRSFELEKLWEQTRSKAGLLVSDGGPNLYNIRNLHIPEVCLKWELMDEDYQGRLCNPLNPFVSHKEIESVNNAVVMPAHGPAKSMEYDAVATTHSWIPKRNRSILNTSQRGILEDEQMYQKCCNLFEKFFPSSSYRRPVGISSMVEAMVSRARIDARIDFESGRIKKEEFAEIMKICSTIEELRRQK
T2 sequence (P03370 541-1111): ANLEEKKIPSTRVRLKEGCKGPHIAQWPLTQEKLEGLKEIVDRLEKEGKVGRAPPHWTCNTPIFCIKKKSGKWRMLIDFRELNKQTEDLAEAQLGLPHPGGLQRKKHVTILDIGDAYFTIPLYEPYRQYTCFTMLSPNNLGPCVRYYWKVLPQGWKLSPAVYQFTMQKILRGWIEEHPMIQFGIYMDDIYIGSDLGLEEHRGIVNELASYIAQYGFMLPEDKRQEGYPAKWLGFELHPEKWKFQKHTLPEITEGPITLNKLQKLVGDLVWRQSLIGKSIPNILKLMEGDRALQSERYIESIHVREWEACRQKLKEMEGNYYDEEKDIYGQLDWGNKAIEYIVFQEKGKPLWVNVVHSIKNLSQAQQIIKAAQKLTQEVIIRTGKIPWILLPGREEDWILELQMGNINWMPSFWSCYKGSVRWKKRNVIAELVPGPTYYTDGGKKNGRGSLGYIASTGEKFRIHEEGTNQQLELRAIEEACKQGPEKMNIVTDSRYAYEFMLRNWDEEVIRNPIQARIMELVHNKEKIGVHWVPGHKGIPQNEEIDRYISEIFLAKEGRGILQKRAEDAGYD
T1 sequence (P0A8V2 whole entry): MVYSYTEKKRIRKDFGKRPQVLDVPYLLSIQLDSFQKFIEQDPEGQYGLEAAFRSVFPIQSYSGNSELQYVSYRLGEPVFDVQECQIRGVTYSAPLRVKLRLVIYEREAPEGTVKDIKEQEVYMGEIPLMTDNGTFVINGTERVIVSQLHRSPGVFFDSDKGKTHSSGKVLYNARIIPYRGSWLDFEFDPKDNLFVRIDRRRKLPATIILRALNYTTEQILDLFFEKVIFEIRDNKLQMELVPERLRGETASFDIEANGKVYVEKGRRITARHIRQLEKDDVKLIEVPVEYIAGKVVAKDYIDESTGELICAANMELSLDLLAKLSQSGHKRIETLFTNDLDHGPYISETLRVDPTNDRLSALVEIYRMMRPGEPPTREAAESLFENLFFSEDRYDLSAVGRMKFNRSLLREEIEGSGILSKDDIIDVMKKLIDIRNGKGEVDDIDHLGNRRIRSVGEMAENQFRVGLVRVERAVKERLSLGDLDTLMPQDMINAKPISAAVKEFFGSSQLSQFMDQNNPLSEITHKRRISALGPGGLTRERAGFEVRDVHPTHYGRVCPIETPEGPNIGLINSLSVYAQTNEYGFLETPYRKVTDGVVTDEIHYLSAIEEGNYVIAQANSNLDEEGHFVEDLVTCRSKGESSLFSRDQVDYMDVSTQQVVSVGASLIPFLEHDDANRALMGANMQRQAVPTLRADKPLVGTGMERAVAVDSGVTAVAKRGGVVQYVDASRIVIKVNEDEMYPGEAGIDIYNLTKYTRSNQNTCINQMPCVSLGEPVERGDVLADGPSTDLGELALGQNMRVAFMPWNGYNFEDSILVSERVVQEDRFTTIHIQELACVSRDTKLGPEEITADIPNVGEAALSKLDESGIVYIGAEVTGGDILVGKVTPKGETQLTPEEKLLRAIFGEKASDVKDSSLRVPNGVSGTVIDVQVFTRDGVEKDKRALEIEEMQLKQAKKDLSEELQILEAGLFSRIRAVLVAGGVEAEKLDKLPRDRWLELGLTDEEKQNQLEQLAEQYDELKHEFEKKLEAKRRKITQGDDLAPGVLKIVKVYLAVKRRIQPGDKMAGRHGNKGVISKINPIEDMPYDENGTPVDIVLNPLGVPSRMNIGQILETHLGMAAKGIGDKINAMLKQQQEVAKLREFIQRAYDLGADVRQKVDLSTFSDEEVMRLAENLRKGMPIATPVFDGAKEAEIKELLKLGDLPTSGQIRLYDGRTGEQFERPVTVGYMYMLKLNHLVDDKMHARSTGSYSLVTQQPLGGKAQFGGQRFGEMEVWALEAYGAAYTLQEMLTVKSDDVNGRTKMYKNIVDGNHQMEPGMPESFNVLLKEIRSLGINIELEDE
T1 sequence (P0A8T7 whole entry): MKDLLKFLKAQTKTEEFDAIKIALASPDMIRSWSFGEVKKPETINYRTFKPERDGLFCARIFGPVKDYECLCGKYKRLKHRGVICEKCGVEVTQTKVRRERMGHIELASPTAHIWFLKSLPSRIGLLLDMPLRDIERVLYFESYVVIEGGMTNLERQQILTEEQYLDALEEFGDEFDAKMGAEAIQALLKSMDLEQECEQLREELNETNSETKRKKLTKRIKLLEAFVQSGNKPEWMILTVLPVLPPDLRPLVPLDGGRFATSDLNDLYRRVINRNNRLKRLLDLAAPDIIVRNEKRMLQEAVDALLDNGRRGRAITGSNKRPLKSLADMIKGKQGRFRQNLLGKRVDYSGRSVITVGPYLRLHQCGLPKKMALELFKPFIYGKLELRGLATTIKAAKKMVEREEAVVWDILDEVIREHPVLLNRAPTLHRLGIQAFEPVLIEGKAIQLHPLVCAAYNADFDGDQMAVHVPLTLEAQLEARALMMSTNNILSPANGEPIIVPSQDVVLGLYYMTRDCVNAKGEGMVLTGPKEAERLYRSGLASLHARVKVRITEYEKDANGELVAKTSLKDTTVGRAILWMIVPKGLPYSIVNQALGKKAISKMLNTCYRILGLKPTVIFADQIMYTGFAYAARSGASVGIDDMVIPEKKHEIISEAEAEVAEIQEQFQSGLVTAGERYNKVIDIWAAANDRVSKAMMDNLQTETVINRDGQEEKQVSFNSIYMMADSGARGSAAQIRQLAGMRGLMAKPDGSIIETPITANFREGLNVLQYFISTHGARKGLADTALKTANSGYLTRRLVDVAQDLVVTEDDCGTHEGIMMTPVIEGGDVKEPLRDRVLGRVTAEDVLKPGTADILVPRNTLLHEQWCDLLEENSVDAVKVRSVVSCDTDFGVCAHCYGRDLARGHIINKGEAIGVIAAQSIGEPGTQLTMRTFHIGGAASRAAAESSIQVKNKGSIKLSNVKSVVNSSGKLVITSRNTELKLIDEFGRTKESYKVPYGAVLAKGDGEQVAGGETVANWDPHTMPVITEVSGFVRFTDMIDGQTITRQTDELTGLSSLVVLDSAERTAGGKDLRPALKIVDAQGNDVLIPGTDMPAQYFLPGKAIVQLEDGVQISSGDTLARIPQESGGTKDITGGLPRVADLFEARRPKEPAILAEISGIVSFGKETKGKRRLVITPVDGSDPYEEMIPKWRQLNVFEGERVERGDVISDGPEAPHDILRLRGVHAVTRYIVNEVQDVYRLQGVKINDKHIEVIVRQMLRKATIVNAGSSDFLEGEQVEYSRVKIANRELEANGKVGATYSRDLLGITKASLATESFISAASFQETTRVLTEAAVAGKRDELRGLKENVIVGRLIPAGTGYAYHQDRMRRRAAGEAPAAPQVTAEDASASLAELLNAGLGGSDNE
T1 sequence (P0A7Z4 whole entry, further chain): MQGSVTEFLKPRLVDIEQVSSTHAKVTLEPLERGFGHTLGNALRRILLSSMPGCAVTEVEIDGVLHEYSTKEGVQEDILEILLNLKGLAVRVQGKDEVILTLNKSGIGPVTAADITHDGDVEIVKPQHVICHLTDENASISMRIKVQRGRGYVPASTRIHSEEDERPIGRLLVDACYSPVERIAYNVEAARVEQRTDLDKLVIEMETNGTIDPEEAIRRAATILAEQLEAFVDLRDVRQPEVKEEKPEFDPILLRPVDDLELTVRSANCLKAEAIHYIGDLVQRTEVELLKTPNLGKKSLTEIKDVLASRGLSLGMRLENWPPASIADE
T1 sequence (P0A800 whole entry, further chain): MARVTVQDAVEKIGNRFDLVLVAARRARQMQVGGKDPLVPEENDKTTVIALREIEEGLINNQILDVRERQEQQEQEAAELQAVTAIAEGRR

On to `O=C(O)P(=O)(O)O` [phosphonoformic acid], for which the figures for the inhibition at 500 µM in data set [1], in data set [2] (500 μM) and in data set [3] (500 μM) were 3%, 99% and 93%, respectively. Also, the “Morphological changes Day 3” value in the data set with visna virus (100 μM) and in the data set with visna virus (500 μM) was “-” throughout. Moreover, the “Morphological changes Day 5” value in the data set with visna virus (100 μM) is “+ (10% cell degeneration)”; in the data set with visna virus (500 μM), “-”. The entries for the “Morphological changes Day 7” value in the data set on visna virus (100 μM) and in the data set with visna virus (500 μM) were “++ (25% cell degeneration)” and “+ (10% cell degeneration)”, respectively. In addition, the IC50 with visna virus (Visna-maedi virus, 120 h, SCP cells, virus titre 5 days after infection, read-out: concentration giving 50 percent reduction of virus multiplication) worked out at 20 µM; in the data set with HTLV-III (after 6 days of incubation, read-out: concentration giving 50% inhibition of HTLV-III replication) it was 50 µM. For the same compound, the inhibition at 100 µM in data set [2] (100 μM) and in data set [3] (100 μM) was 95% in each case. For the same compound, in data set [3] (0.1 μM), the inhibition at 0.1 µM came to 21%. In addition, the inhibition at 0.5 µM in data set [3] (0.50 μM) was more than 50%. In addition, the inhibition at 1 µM in data set [3] (1.00 μM) was 79%. The inhibition at 10 µM in data set [3] (10 μM) is 91%. In “Acute toxicity in mice”, the LD50 was in the range of 2000 to 4000 µmol/kg. Also, the “Result (skin irritation), area of application penis” value in data set [4] is listed as “No symptoms”. For the same compound, in data set [4], the “Result (skin irritation), area of application upper arm” value was “No symptoms”. The compound also showed an inhibition at 300 µM with HTLV-III (300 μM, after six days of incubation) of more than 95%.
